Values after ≈ are worked out from the molar mass of the structure shown.
System: Mycobacterium tuberculosis
Test: Antitubercular activity against Mycobacterium tuberculosis H37Rv
Type: functional

**Q.** With `CCCCCCCCCCCCCCCCCC(=O)N(CCO)C[C@H]1O[C@@H]2OC(C)(C)O[C@@H]2[C@H]2OC(C)(C)O[C@H]21` as the compound, how does the MIC read?
**A.** 25 µg/mL (≈ 43.9 µM)

**Q.** `CO[C@H]1/C=C/O[C@@]2(C)Oc3c(C)c(O)c4c(O)c(c(/C=N/N5CCN(C)CC5)c(O)c4c3C2=O)NC(=O)/C(C)=C\C=C\[C@H](C)[C@H](O)[C@@H](C)[C@@H](O)[C@@H](C)[C@H](OC(C)=O)[C@@H]1C` [RIFAMPIN] was tested. Which MIC did it give?
**A.** 1 µg/mL (≈ 1.22 µM)

**Q.** How did the MIC turn out when `CC1(C)O[C@H]2[C@@H](O1)[C@@H](CNCCO)O[C@@H]1OC(C)(C)O[C@@H]12` was run?
**A.** > 50 µg/mL

**Q.** Which MIC does the source give for `CCCCCCCCCCCCCCCCCC(=O)NCCCNC[C@H]1O[C@@H]2OC(C)(C)O[C@@H]2[C@H]2OC(C)(C)O[C@H]21` here?
**A.** 12.5 µg/mL (≈ 21.4 µM)

**Q.** For `CCCCCCCCCCCCCCCC(=O)NCCCN(C[C@H]1O[C@@H]2OC(C)(C)O[C@@H]2[C@H]2OC(C)(C)O[C@H]21)C(=O)CCCCCCCCCCCCCCC`, which MIC is on record?
**A.** > 50 µg/mL

**Q.** For `CC1(C)O[C@H]2[C@@H](O1)[C@@H](CNCCCN)O[C@@H]1OC(C)(C)O[C@@H]12`, which MIC is on record?
**A.** > 50 µg/mL

**Q.** For `CCCCCCCCCCCCCCCCCC(=O)NCCNC[C@H]1O[C@@H]2OC(C)(C)O[C@@H]2[C@H]2OC(C)(C)O[C@H]21`, which MIC is on record?
**A.** < 3.12 µg/mL

**Q.** With `CCCCCCCCCCCCCCCCCC(=O)NCCCN(C[C@H]1OC(O)[C@H](O)[C@@H](O)[C@H]1O)C(=O)CCCCCCCCCCCCCCCCC` (stereo partly specified) as the compound, how does the MIC read?
**A.** > 50 µg/mL

**Q.** Which MIC does the source give for `CCCCCCCCCCCCCCCCCC(=O)OCCN(C[C@H]1O[C@@H]2OC(C)(C)O[C@@H]2[C@H]2OC(C)(C)O[C@H]21)C(=O)CCCCCCCCCCCCCCCCC` here?
**A.** > 50 µg/mL

**Q.** With `CCCCCCCCCCCCCCCCCC(=O)NCCN(C[C@H]1OC(O)[C@H](O)[C@@H](O)[C@H]1O)C(=O)CCCCCCCCCCCCCCCCC` (stereo partly specified) as the compound, how does the MIC read?
**A.** > 50 µg/mL

**Q.** `CCCCCCCCCCCCCCCC(=O)NCCN(C[C@H]1O[C@@H]2OC(C)(C)O[C@@H]2[C@H]2OC(C)(C)O[C@H]21)C(=O)CCCCCCCCCCCCCCC` was tested. Which MIC did it give?
**A.** > 50 µg/mL

— ChEMBL document CHEMBL1148009, “Synthesis of amphiphilic galactopyranosyl diamines and amino alcohols as antitubercular agents” (2007)
